The source made the active and inactive calls.
Key:
MDA-MB-231 = test: Cytotoxicity against human MDA-MB-231 cells assessed as reduction in cell viability incubated for 24 hrs by CCK-8 assay; assay type: functional, cell-based; conditions: MDA-MB-231, 24 h
[1] = Cytotoxicity against human MCF-10A assessed as cell growth inhibition incubated for 24 hrs by CCK-8 assay; assay type: toxicity, cell-based; conditions: MCF-10A cells
Quadruplex DNA [2] = test: Stabilization of fluorescently labelled G4-quadruplex mt6363 DNA (unknown origin) assessed as effect on thermal stability of DNA structure by measuring change in melting temperature at 1 uM by FRET melting assay; assay type: nucleic-acid assay
4T1 [3] = test: Inhibition of colony formation in mouse 4T1 cells assessed as decrease in number of colonies measured after 10 days of treatment by […]; assay type: functional, cell-based; conditions: dose <= 2.0 µM, time 10.0 day
4T1 [4] = test: Inhibition of tumor metastasis in mouse 4T1 cells assessed as reduction in wound healing after 24 hrs; assay type: functional, cell-based
4T1 [5] = test: Induction of apoptosis in mouse 4T1 cells assessed as decrease in caspase-3 level at 5 uM by Western blotting analysis; assay type: functional, cell-based
4T1 [6] = test: Induction of mitochondrial damage DNA in mouse 4T1 cells assessed as reduction in mtDNA by qPCR analysis; assay type: functional, cell-based
Mitochondrial membrane = test: Disruption of mitochondrial membrane potential in mouse 4T1 cells assessed as increase green fluorescence at 0 to 5 uM by JC-1 staining based analysis; conditions: dose 0-5 µM
4T1 [7] = test: Induction of mitochondrial damage in mouse 4T1 cells assessed as increase in ND4 level by qPCR analysis; assay type: functional, cell-based
4T1 [8] = test: Induction of ROS generation in mouse 4T1 cells assessed as increase ROS level by DCFH-DA staining based analysis; assay type: functional, cell-based
4T1 [9] = test: Induction of mitochondrial damage in mouse 4T1 cells assessed as increase in CytB level by qPCR analysis; assay type: functional, cell-based
4T1 [10] = test: Induction of mitochondrial damage in mouse 4T1 cells assessed as disappearance of picogreen incubated for 1 hrs and measured after 24 hrs by immunofluorescence analysis; assay type: functional, cell-based; conditions: time 25.0 hrs
4T1 [11] = test: Activation of cGAS-STING pathway in mouse 4T1 cells assessed as […] in STING phosphorylation up to 5 uM by Western blot analysis; assay type: cell-based; conditions: filed as activator
4T1 [12] = test: Activation of cGAS-STING signaling pathway in mouse 4T1 cells assessed as […] in TBK1 phosphorylation up to 5 uM by Western blot analysis; assay type: cell-based; conditions: filed as activator
4T1 [13] = test: Activation of cGAS-STING signaling pathway in mouse 4T1 cells assessed as […] in IRF3 phosphorylation up to 5 uM by Western blot analysis; assay type: cell-based; conditions: filed as activator
4T1 [14] = test: Activation of cGAS-STING signaling pathway in mouse 4T1 cells assessed as increase in IFN-beta level at 5 uM by qPCR analysis; assay type: cell-based; conditions: filed as activator
4T1 [15] = test: Induction of mitochondrial damage in mouse 4T1 cells assessed as decrease in Dloop2 level at 5 uM in presence of NAC by qPCR analysis; assay type: functional, cell-based
4T1 [16] = test: Induction of mitochondrial damage in mouse 4T1 cells assessed as decrease in Dloop2 level at 5 uM in presence of DDC by qPCR analysis; assay type: functional, cell-based
4T1 [17] = test: Induction of mitochondrial damage in mouse 4T1 cells assessed as decrease in CytB level at 5 uM in presence of DDC by qPCR analysis; assay type: functional, cell-based
4T1 [18] = test: Antitumor activity against mouse 4T1 cells implanted with female BALB/c mouse assessed as decrease tumor volume at 2.5 mg/kg, sc administered for every 3 days for 2 weeks from day 7; assay type: functional, organism-based
[19] = Toxicity in female BALB/c mouse implanted with mouse 4T1 cells assessed as body weight loss at 2.5 mg/kg, sc measured every other day for 21 days; assay type: organism-based; conditions: in vivo, 504 h, time 21 day
[20] = Toxicity in female BALB/c mouse implanted with mouse 4T1 cells assessed as change in heart weight at 2.5 mg/kg, sc measured after 21 days by Hematoxylin-Eosin staining based analysis; assay type: organism-based; conditions: in vivo, 504 h, time 21 day
Mus musculus [21] = test: Immunostimulatory activity in female BALB/c mouse implanted with mouse 4T1 cells assessed as upregulation of M1 macrophages level 2.5 mg/kg, sc by flow cytometry analysis; assay type: functional, organism-based
4T1 [22] = test: Antitumor activity against mouse 4T1 cells implanted with female BALB/c mouse assessed as suppression in lung metastasis at 2.5 mg/kg, iv administered every 3 days for 2 weeks from day 7; assay type: functional, organism-based
Quadruplex DNA [23] = test: Binding affinity to G4-quadruplex mt6363 DNA (unknown origin) at 10 uM by fluorescence based analysis; assay type: nucleic-acid assay
Quadruplex DNA [24] = test: Binding affinity to G4-quadruplex mt6363 DNA (unknown origin) assessed as melting temperature at 10 uM incubated for 2 hrs by fluorescence based analysis; assay type: nucleic-acid assay
4T1 [25] = test: Activation of cGAS-STING signaling pathway in mouse 4T1 cells assessed as increase in IFN-beta level up to 5 uM by ELISA analysis; assay type: cell-based; conditions: filed as activator
4T1 [26] = test: Activation of cGAS-STING signaling pathway in mouse 4T1 cells assessed as increase in TNF-alpha level up to 5 uM by ELISA analysis; assay type: cell-based; conditions: filed as activator
4T1 [27] = test: Induction of mouse 4T1 cell maturation assessed as increase in CD86 positive cells by flow cytometric analysis; assay type: functional, cell-based; conditions: dose <= 5.0 µM
Mus musculus [28] = test: Immunostimulatory activity in female BALB/c mouse implanted with mouse 4T1 cells assessed as change in CD8+ T cells in spleen at 2.5 mg/kg, sc by flow cytometry; assay type: functional, organism-based
Mus musculus [29] = test: In-vivo activation of cGAS-STING signaling pathway in female BALB/c mouse assessed as effect on cGAS level in tumor at 2.5 mg/kg, sc by Western blot analysis; assay type: functional, organism-based
Mus musculus [30] = test: In-vivo activation of cGAS-STING signaling pathway in female BALB/c mouse assessed as STING level in tumor at 2.5 mg/kg, sc by Western blot analysis; assay type: functional, organism-based
Mus musculus [31] = test: In-vivo activation of cGAS-STING signaling pathway in female BALB/c mouse assessed as TBK1 level in tumor at 2.5 mg/kg, sc by Western blot analysis; assay type: functional, organism-based
Mus musculus [32] = test: In-vivo activation of cGAS-STING signaling pathway in female BALB/c mouse assessed as IRF3 level in tumor at 2.5 mg/kg, sc by Western blot analysis; assay type: functional, organism-based
4T1 [33] = test: Antitumor activity against mouse 4T1 cells implanted with female BALB/c mouse assessed as effect on PARP level in tumor at 2.5 mg/kg, sc measured for 21 days; assay type: functional, organism-based; conditions: time 21.0 day
Mus musculus [34] = test: In-vivo activation of cGAS-STING signaling pathway in female BALB/c mouse assessed as increase in IFN-beta level at 2.5 mg/kg, sc by ELISA analysis; assay type: functional, organism-based
Mus musculus [35] = test: In-vivo activation of cGAS-STING signaling pathway in female BALB/c mouse assessed as increase in IL-6 level at 2.5 mg/kg, sc by ELISA analysis; assay type: functional, organism-based
Mus musculus [36] = test: Immunostimulatory activity in female BALB/c mouse implanted with mouse 4T1 cells assessed as increase in CD8+ T cells in spleen 2.5 mg/kg, iv by flow cytometry; assay type: functional, organism-based

COc1ccc(N(c2ccc(/C=C/C3=[N+](C)c4ccc5ccccc5c4C3(C)C)cc2)c2ccc(OC)cc2)cc1.[I-]
46.2 °C: Tm (Quadruplex DNA [24])
Non-toxic: Activity [19] | Activity [20]
28.5 °C: ΔTm (Quadruplex DNA [2])
active: Activity (4T1 [3]) Dose-dependent-effect | Activity (4T1 [4]) | Activity (4T1 [5]) | Activity (4T1 [6]) | Activity (Mitochondrial membrane) | Activity (4T1 [7]) | Activity (4T1 [8]) | Activity (4T1 [9]) | Activity (4T1 [10]) | Activity (4T1 [11]) | Activity (4T1 [12]) | Activity (4T1 [13]) | Activity (4T1 [14]) | Activity (4T1 [15]) | Activity (4T1 [16]) | Activity (4T1 [17]) | Activity (4T1 [18]) | Activity (Mus musculus [21]) | Activity (4T1 [22]) | Activity (Quadruplex DNA [23]) | Activity (4T1 [25]) | Activity (4T1 [26]) | Activity (4T1 [27]) Dose-dependent-effect | Activity (Mus musculus [28]) | Activity (Mus musculus [29]) | Activity (Mus musculus [30]) | Activity (Mus musculus [31]) | Activity (Mus musculus [32]) | Activity (4T1 [33]) | Activity (Mus musculus [34]) | Activity (Mus musculus [35]) | Activity (Mus musculus [36])
1.8 µM: IC50 (MDA-MB-231)
9.6 µM: IC50 at 24 h [1]
